Results: US20160222014A1, “COMPOUNDS FOR REGULATING FAK AND/OR SRC PATHWAYS” (ASANA BIOSCIENCES, LLC, priority 2013, published 2016)
pIC50: −log10 of the molar value.

What was measured:
AURKB (Aurora B) enzyme = molecular target: T1, AURKB (Aurora B) enzyme (Homo sapiens, UniProt Q96GD4); assay: Aurora B HTRF assay; format: biochemical; conditions: read-out: AuroraB IC50
T1 construct: purchased Invitrogen PVR 130
How it was run: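 Enzyme (5 nM final) and ULight-labelled PLK Ser137 peptide (50 nM) reacted 1 h at room temperature; a 30 μM final component was also present. Detection used EDTA-containing buffer with europium anti-phospho-PLK(Ser137) antibody at 2 nM, 1 h, then time-resolved FRET readout.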

JAK2 = JAK2 (Homo sapiens, UniProt O60674); assay: JAK2 biochemical potency; conditions: read-out: JAK2 HTRF IC50
recombinant human FAK1 = molecular target: T2, recombinant human FAK1 (Homo sapiens, UniProt Q05397); assay: FAK1 HTRF assay; format: biochemical
T2 construct: fused on or other part: N-terminal 6xHis tag
How it was run: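 IC50 values derive from HTRF % inhibition (ratio 665/620 nm, Eu–anti-phosphotyrosine 0.1 nM, SA-APC 12 nM). The kinase step ran 45 min at room temperature, pairing 10 nM His-FAK1(692–end) from baculovirus with 0.5 μM gastrin Tyr87 biotin-peptide and a reagent at 10 μM final, pH 7.4. Compound dilutions began at 10 μM.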

Recombinant Src enzyme = molecular target: T3, Recombinant Src enzyme (Homo sapiens, UniProt P12931); assay: Src HTRF assay; format: biochemical
T3 construct: purchased Millipore 14-326; host or cells: Sf21 insect cells
How it was run: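 Run as for the FAK HTRF assay (same buffer, supplements, compound preparation and procedure), with dasatinib included. Reaction contained 0.5 μM biotin-tagged Tyk2 synthetic peptide, 5 nM Src made in Sf21 cells, and a pH7.4-buffer-prepared component at 10 μM final.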

[1] = molecular target: T4, FAK phosphorylated at Y397 in HEK-FAK cell line overexpressing human FL FAK protein (Homo sapiens, UniProt Q05397); assay: Cell based assay, Phospho-FAK ELISA; conditions: HEK stb; read-out: pFAK EC50 (μM) HEK stb
T4 construct: expressed in transfected cells
Description: D. Cell Based Assay-Phospho-FAK ELISA
The DuoSet IC ELISA (R&D systems—Cat no. DYC4528-5) provided the basic components required for the development of sandwich ELISAs to measure Focal Adhesion Kinase 1 (FAK) phosphorylated at Y397 in cell lysates. An immobilized capture antibody specific for FAK, also known as PTK2, binds both phosphorylated and unphosphorylated protein. After washing away unbound material, a biotinylated detection antibody specific for FAK phosphorylated at Y397 was used to detect only phosphorylated protein, utilizing a standard Streptavidin-HRP format. The cell line used for the assay was a stable HEK-FAK cell line overexpressing human FL FAK protein, which was generated as follows.
HEK293 cells (ATCC® CRL-1573™, 10801 University Boulevard, Manassas, Va. 20110 USA) were seeded in four 100 mm petri dishes at a seeding density of 1.5×10^6 cells per plate and incubated overnight at 37° C. in a 5% CO2 incubator. The transfection mix was prepared as follows. (A) 10 μg DNA (pCDNA4 V5/HisA vector containing Zeocin as mammalian selection marker, procured from Invitrogen) with the full length human FAK gene represented by the nucleotide sequence provided in NCBI Reference Sequence: NM_153831.3, SEQ ID NO: 1:
was added to 1.5 mL Opti-MEM® (reduced serum media is a modification of Eagle's Minimum Essential Media, buffered with HEPES and sodium bicarbonate and supplemented with hypoxanthine, thymidine, sodium pyruvate, L-glutamine, trace elements and growth factors commercially available from Invitrogen) and incubated at room temperature for 5 minutes. (B) 30 μL Lipofectamine™ Transfection reagent (Life Technologies) was added to 1.5 mL Opti-MEM® and incubated at room temperature for 5 minutes. Following this, (a) and (b) were mixed and incubated at room temperature for 20 minutes. Media was removed from cells and washed with 1× phosphate buffered saline (PBS) and the transfection mix prepared above was mixed with 3 mL of Opti-MEM®, added to the cells and incubated at 37° C. Four hours later, 6 mL of 20% Dulbecco's Modified Eagle Medium (DMEM) was added to the plates and incubated at 37° C. in a 5% CO2 incubator. Approximately 72 hours after transfection, cells were subcultured at various dilutions with fresh medium containing 0.8 mg/mL Zeocin™ (Life Technologies). Cells were replenished with selective medium every 3-4 days until cell foci were identified in the FAK transfected cells and most of the cells died in the control plates. Cells from these foci were grown in the presence of selective media and the expression of FAK was confirmed by Western Blotting. Over expression of FAK in the stably-transfected cells was quantified in the cell-based ELISA assay described below by determining the signal window, with a signal window of 2 or above considered to be robust). The HEK-FAK stable cell line thus was maintained in 0.8 mg/mL Zeocin™ (Life Technologies) and used in cell-based ELISA to assess autophosphorylation of FAK.
(i) Materials • 1. Phospho-FAK (Y397)-Capture Antibody • 2. Phospho-FAK (Y397)-Detection Antibody • 3. Streptavidin-HRP • 4. Cells used for the assay-HEK over expressing human FL FAK protein
(ii) Solutions • PBS—137 mM NaCl, 2.7 mM KCl, 8.1 mM Na2HPO4, 1.5 mM KH2PO4, pH 7.2-7.4, 0.2 μm filtered. • Wash Buffer—0.05% Tween20™ in PBS, pH 7.2-7.4 • Block Buffer—1% BSA, 0.05% NaN3, in PBS, pH 7.2-7.4. • IC Diluent #1-1% BSA in PBS, pH 7.2-7.4, 0.2 μm filtered. • IC Diluent #8-1 mM EDTA, 0.5% Triton™ X-100, 5 mM NaF in PBS, pH 7.2-7.4. IC Diluent #8 was also the base buffer for IC Diluent #3, IC Diluent #7, and Lysis. • Buffer #6. […]

T1 sequence (Q96GD4 whole entry): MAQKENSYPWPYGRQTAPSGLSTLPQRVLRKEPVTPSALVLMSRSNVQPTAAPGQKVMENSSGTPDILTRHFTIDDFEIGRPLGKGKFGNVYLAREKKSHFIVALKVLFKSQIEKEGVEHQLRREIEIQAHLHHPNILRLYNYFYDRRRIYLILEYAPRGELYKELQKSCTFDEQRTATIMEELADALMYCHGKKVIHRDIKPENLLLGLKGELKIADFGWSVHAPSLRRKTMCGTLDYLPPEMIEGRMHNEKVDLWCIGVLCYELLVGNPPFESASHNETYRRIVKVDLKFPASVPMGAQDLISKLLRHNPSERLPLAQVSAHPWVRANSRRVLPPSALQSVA
T4 sequence (Q05397 whole entry): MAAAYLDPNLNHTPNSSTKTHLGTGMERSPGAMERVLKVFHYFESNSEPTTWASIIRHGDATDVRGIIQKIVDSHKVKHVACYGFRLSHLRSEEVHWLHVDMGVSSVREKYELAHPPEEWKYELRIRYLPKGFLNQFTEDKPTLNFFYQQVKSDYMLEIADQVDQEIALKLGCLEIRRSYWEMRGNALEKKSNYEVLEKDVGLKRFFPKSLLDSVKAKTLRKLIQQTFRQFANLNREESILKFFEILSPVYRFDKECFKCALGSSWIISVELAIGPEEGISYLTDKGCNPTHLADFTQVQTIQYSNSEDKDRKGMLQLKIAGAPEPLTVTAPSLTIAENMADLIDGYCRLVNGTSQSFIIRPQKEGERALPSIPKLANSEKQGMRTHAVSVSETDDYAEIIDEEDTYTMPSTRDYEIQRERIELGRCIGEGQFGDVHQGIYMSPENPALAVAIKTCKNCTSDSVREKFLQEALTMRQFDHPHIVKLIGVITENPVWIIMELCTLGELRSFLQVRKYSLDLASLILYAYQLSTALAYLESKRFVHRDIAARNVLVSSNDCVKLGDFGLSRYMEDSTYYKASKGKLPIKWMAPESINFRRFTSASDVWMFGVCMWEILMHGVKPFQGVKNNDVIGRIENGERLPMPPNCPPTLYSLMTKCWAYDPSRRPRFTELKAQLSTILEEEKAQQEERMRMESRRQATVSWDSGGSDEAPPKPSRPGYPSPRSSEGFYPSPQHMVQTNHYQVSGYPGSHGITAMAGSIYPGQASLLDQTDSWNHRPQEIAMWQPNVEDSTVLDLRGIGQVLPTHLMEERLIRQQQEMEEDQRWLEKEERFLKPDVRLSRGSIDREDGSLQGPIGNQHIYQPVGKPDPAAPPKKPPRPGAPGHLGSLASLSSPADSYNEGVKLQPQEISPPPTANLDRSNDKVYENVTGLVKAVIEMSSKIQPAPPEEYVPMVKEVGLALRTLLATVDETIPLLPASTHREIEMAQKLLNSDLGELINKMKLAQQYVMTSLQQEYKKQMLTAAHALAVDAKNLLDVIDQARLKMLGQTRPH
Sequence of JAK2 (O60674 whole entry, species assumed): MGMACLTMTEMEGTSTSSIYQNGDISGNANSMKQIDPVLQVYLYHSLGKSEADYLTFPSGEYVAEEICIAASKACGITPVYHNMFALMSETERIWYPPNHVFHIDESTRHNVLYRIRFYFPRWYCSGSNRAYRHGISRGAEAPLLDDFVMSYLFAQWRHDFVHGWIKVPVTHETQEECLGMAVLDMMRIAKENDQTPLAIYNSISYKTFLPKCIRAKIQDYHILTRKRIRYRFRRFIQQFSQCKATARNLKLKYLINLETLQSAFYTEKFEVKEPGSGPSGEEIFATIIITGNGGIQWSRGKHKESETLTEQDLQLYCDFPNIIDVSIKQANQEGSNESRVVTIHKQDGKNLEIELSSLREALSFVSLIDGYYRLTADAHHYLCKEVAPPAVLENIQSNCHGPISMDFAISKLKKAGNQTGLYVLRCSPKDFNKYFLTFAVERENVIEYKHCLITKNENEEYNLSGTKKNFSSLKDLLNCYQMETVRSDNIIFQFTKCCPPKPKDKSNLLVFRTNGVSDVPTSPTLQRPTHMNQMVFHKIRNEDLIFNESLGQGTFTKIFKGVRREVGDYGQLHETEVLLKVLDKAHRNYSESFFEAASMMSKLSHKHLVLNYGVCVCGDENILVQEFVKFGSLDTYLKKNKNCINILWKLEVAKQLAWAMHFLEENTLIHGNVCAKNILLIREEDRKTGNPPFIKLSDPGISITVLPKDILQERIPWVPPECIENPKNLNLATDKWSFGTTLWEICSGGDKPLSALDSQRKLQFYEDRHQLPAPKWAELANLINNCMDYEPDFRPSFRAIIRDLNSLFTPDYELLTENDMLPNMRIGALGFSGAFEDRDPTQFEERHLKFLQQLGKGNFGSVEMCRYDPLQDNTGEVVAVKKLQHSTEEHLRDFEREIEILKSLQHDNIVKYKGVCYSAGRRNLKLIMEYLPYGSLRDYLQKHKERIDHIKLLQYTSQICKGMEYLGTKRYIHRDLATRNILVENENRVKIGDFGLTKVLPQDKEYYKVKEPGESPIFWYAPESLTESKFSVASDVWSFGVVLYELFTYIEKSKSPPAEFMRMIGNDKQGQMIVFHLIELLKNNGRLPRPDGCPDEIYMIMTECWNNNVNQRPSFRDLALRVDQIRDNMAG
T2 sequence (Q05397 422-680 limits assumed): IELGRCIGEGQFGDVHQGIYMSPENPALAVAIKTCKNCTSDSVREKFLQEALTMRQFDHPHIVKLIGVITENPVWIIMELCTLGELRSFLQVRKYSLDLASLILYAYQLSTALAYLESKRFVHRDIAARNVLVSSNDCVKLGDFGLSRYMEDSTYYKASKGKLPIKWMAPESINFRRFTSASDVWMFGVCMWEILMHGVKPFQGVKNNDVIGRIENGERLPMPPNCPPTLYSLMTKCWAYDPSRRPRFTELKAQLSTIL
T3 sequence (P12931 whole entry): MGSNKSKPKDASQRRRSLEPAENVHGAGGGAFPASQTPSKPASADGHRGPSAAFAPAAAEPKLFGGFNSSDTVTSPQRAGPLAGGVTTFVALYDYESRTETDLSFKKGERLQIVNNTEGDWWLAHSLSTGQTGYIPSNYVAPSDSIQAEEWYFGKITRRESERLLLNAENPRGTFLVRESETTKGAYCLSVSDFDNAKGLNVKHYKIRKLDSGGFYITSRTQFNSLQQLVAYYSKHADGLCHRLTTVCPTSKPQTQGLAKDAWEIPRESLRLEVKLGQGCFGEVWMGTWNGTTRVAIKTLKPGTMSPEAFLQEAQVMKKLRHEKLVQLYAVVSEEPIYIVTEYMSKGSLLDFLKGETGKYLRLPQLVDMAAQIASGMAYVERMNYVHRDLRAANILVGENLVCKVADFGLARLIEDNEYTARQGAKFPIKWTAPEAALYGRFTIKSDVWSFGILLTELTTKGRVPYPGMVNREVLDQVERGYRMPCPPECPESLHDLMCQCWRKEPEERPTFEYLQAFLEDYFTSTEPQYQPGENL

SMILES | pIC50 (AURKB (Aurora B) enzyme) | pIC50 (JAK2) | pIC50 (recombinant human FAK1) | pIC50 (Recombinant Src enzyme) | EC50 [1] [µM]
CC(=O)Nc1ccc(Nc2ncc3ccn(Cc4cccnc4N(C)S(C)(=O)=O)c3n2)cc1 [Example 35] | > 7.70 | > 7.70 | – | – | –
CN(C)CCOc1cccc(Nc2ncc3ccn(Cc4cccnc4N(C)S(C)(=O)=O)c3n2)c1 [Example 91] | > 7.70 | > 7.70 | – | – | –
CC(=O)Nc1ccc(Nc2ncc3ccn(Cc4ccccc4OC(F)F)c3n2)cc1 [Example 95] | – | > 7.70 | – | – | –
CN(c1ncccc1Cn1ccc2cnc(Nc3cccc(N4CCOCC4)c3)nc21)S(C)(=O)=O [Example 99] | – | > 7.70 | – | – | –
CC(=O)Nc1cccc(Nc2ncc3ccn(Cc4ccccc4N(C)S(C)(=O)=O)c3n2)c1 [Example 100] | – | > 7.70 | > 7.70 | – | –
CN1CCN(c2ccc(Nc3ncc4ccn(Cc5cccnc5N(C)S(C)(=O)=O)c4n3)cc2)CC1 [Example 101] | – | > 7.70 | – | – | –
CN(c1ccccc1Cn1ccc2cnc(Nc3ccc4c(c3)CCC(=O)N4)nc21)S(C)(=O)=O [Example 103] | – | > 7.70 | > 7.70 | – | –
CN(C)c1ccc(Nc2ncc3ccn(Cc4cccnc4N(C)S(C)(=O)=O)c3n2)cc1 [Example 105] | > 7.70 | > 7.70 | – | – | –
COc1ccccc1S(=O)(=O)n1ccc2cnc(Nc3ccc4c(c3)CCC(=O)N4)nc21 [Example 106] | > 7.70 | > 7.70 | > 7.70 | – | –
CN(c1ncccc1Cn1ccc2cnc(Nc3ccc(N4CCNCC4)cc3)nc21)S(C)(=O)=O [Example 116] | > 7.70 | > 7.70 | – | – | –
CN(c1ncccc1Cn1ccc2cnc(Nc3ccc4ncsc4c3)nc21)S(C)(=O)=O [Example 123] | > 7.70 | > 7.70 | – | – | –
CN(c1ncccc1Cn1ccc2cnc(Nc3cccc(S(N)(=O)=O)c3)nc21)S(C)(=O)=O [Example 165] | > 7.70 | > 7.70 | – | – | –
O=c1[nH]c2ccc(Nc3ncc4ccn(S(=O)(=O)c5ccccc5OC(F)F)c4n3)cc2[nH]1 [Example 180] | > 7.70 | > 7.70 | > 7.70 | – | –
O=S(=O)(c1ccccc1OC(F)F)n1ccc2cnc(Nc3ccc(N4CCNCC4)cc3)nc21 [Example 184] | > 7.70 | > 7.70 | > 7.70 | – | –
O=S(=O)(c1cccc2cccnc12)n1ccc2cnc(Nc3ccc(N4CCNCC4)cc3)nc21 [Example 193] | > 7.70 | > 7.70 | > 7.70 | – | –
CN(C)Cc1ccc(Nc2ncc3ccn(S(=O)(=O)c4cccc5cccnc45)c3n2)cc1 [Example 205] | > 7.70 | > 7.70 | > 7.70 | – | –
O=S(=O)(c1cccc2cccnc12)n1ncc2cnc(Nc3ccc(N4CCNCC4)cc3)cc21 [Example 210] | > 7.70 | < 6.00 | – | – | –
O=S(=O)(c1ccccc1Cl)n1ccc2cnc(Nc3ccc(N4CCNCC4)cc3)nc21 [Example 232] | > 7.70 | – | – | > 7.70 | > 1

SMILES | pIC50 (AURKB (Aurora B) enzyme) | pIC50 (JAK2) | pIC50 (recombinant human FAK1) | pIC50 (Recombinant Src enzyme) | EC50 [1] [µM]
O=S(=O)(c1cccc2cnccc12)n1ccc2cnc(Nc3ccc(N4CCNCC4)cc3)nc21 [Example 235] | > 7.70 | > 7.70 | – | – | –
O=S(=O)(c1cccc2cccnc12)n1ccc2cnc(Nc3ccc(CN4CCNCC4)cc3)nc21 [Example 244] | > 7.70 | > 7.70 | > 7.70 | – | –
N#Cc1ccccc1S(=O)(=O)n1ccc2cnc(Nc3ccc(N4CCNCC4)c(F)c3)nc21 [Example 245] | > 7.70 | – | – | > 7.70 | > 1
O=S(=O)(c1cccc2cccnc12)n1ccc2cnc(Nc3ccc(N4CC5CC4CN5)cc3)nc21 (stereo not drawn) [Example 246] | > 7.70 | > 7.70 | > 7.70 | – | –
O=S(=O)(c1cccc2cccnc12)n1ccc2cnc(Nc3ccc(CN4CCC(F)(F)CC4)cc3)nc21 [Example 248] | > 7.70 | > 7.70 | > 7.70 | – | –
CN(c1ncccc1Cn1ccc2cnc(Nc3ccc4c(c3)CC(=O)N4)nc21)S(C)(=O)=O [Example 304] | > 7.70 | > 7.70 | > 7.70 | – | –
N#Cc1ccccc1S(=O)(=O)n1ccc2cnc(Nc3ccc(N4CCNCC4)cc3)cc21 [Example 314] | > 7.70 | > 7.70 | > 7.70 | – | –
COc1ccccc1S(=O)(=O)n1ncc2cnc(Nc3ccc(N4CCNCC4)cc3)cc21 [Example 342] | > 7.70 | – | – | < 6.00 | > 1
Cc1ccc2cccc(S(=O)(=O)n3ccc4cnc(Nc5ccc(N6CCNCC6)cc5)cc43)c2n1 [Example 369] | > 7.70 | – | – | < 6.00 | > 1
Cc1ccnc2c(S(=O)(=O)n3ccc4cnc(Nc5ccc(N6CCNCC6)cc5)nc43)cccc12 [Example 398] | > 7.70 | – | – | < 6.00 | > 1
COc1cc(N2CCN(CCOC(C)=O)CC2)ccc1Nc1cc2c(ccn2S(=O)(=O)c2cccc3cccnc23)cn1 [Example 451] | – | – | > 7.70 | < 6.00 | < 0.02
C[C@H]1CN(c2ccc(Nc3ncc4ccn(Cc5cccnc5N(C)S(C)(=O)=O)c4n3)cc2)CCN1 [Example 471, N-Methyl-N-(3-{2-[4-((S)-3-methyl-piperazin-1-yl)-phenylamino]-pyrrolo[2,3-d]pyrimidin-7-ylmethyl}-pyridin-2-yl)-methanesulfonamide] | – | > 7.70 | – | – | –
C[C@@H]1CN(c2ccc(Nc3ncc4ccn(Cc5cccnc5N(C)S(C)(=O)=O)c4n3)cc2)CCN1 [Example 475] | > 7.70 | > 7.70 | – | – | –
C[C@H]1CNCCN1c1ccc(Nc2ncc3ccn(Cc4ccccc4N(C)S(C)(=O)=O)c3n2)cc1 [Example 481] | > 7.70 | > 7.70 | – | – | –
CN(C)C1CCN(c2ccc(Nc3ncc4c(n3)N(S(=O)(=O)c3cccc5cccnc35)CC4(C)C)cc2)CC1 [Example 500] | – | < 6.00 | > 7.70 | – | –
N#Cc1ccccc1S(=O)(=O)n1ccc2cnc(Nc3ccc4c(c3)CC(=O)N4)cc21 [Example 514] | – | – | > 7.70 | < 6.00 | > 1
C[C@@H]1CN(c2ccc(Nc3ncc4ccn(Cc5ccccc5NS(C)(=O)=O)c4n3)cc2)CCN1 [Example 547] | > 7.70 | – | – | > 7.70 | > 1
CC1(C)CN(c2ccccn2)c2nc(Nc3ccc4c(c3)CC(=O)N4)ncc21 [Example 740] | < 6.00 | – | – | < 6.00 | > 1
